Measured values reported in patent US6723733B2, “Sulfonamide and carbamide derivatives of 6(5H)phenanthridinones and their uses” (Guilford Pharmaceuticals, Inc., priority 2000, dated 2004).

What was measured:
rabbits = conditions: cited from earlier work
Swiss albino mice = assay: MSU crystal-induced neutrophil recruitment (gout model, peritonitis); assay type: in vivo, mouse; conditions: 45 mg/kg i.p.
Experimental: Male outbread Swiss albino mice (20-22 g body weight) were purchased from Banton and Kingsman (T.O. strain; Hull, Humberside) and maintained on a standard chow pellet diet with tap water ad libitum and a 12:00 h light/dark cycle. All animals were housed for 1 week prior to experimentation to allow body weight to reach 28-30 g.
1,1,1lb-dihydrobenzopyrano[4,3,2-de]isoquinolin-1-one was dissolved in 100% DMSO at room temperature at a concentration of 45 mg in 2 ml. The compound was then injected into the peritoneal cavity, so as each mouse received a single dose corresponding to 45 mg/2 ml/kg (e.g. 60 μl for a mouse of 30 g). […]
MSU crystal-induced neutrophil recruitment was tested as follows. […] Peritonitis was induced by injection of 3 mg MSU crystals in 0.5 ml PBS (0.1 M, pH 7.4), and the recruitment of neutrophils into the cavity evaluated at the 6 h time point (Getting et al., 1997, J. Pharmacol. Exp. Ther. 283: 123-130). […]
An aliquot (100 μl) of the lavage fluid was then diluted 1:10 in Turk's solution (0.01% crystal violet in 3% acetic acid). The samples were then vortexed and 10 μl of the stained cell solution were placed in a Neubauer haematocymometer and neutrophils numbers counted using a light microscope (Olympus B061). […]
Data are shown for single mice, and also shown as mean±S.E. of (n) mice per group. Statistical differences were determined by ANOVA, plus Bonferroni test. […]

## Oc1cccc2c(O)nccc12 [1,5-dihydroxyisoquinoline]
rabbits; single injection 1 mg/kg
  reduction in infarct size: 38-48%

## O=C1N=Cc2cccc3c2C1c1ccccc1O3 (stereo not shown) [1,11b-dihydrobenzopyrano[4,3,2-de]isoquinolin-1-one]
Swiss albino mice; 6 h after MSU crystals
  inhibition of cell influx vs. the vehicle group: 55%
Swiss albino mice; group C, MSU crystals (3 mg), 6 h, n=8, P < 0.05 vs. vehicle group B (6.30 ± 0.33)
  Neutrophils (10^6 per mouse), mean ± S.E.: 2.85 ± 0.34 (8) * 10^6 per mouse

## NC(=O)c1cccc(N)c1 [3-amino-benzamide]
rabbits; single injection 10 mg/kg, one minute before occlusion or before reperfusion
  reduction in infarct size in the heart: 32-42%
